US11180488B2, “Isoxazole o-linked carbamoyl cyclohexyl acids as LPA antagonists” (BRISTOL-MYERS SQUIBB COMPANY, priority 2017, dated 2021)

target: T1, human LPA1 (Homo sapiens, UniProt Q92633); assay: LPA1 functional antagonist assay (LPA-induced calcium flux); type: cell-based; conditions: CHO cells overexpressing human LPA1; calcium flux induced by 10 nM LPA; read-out: LPA1 IC50
T1 construct: expressed in transfected cells; host or cells: Chinese hamster ovary (CHO) cells
Method: The effectiveness of compounds of the present invention as LPA1 inhibitors can be determined in an LPA1 functional antagonist assay as follows:
Chinese hamster ovary cells overexpressing human LPA1 were plated overnight (15,000 cells/well) in poly-D-lysine coated 384-well microplates (Greiner bio-one, Cat #781946) in DMEM/F12 medium (Gibco, Cat #11039). Following overnight culture, cells were loaded with calcium indicator dye (AAT Bioquest Inc, Cat #34601) for 30 minutes at 37° C. The cells were then equilibrated to room temperature for 30 minutes before the assay. Test compounds solubilized in DMSO were transferred to 384 well non-binding surface plates (Corning, Cat #3575) using the Labcyte Echo acoustic dispense and diluted with assay buffer [1×HBSS with calcium/magnesium (Gibco Cat #14025-092), 20 mM HEPES (Gibco Cat #15630-080) and 0.1% fatty acid free BSA (Sigma Cat #A9205)] to a final concentration of 0.5% DMSO. Diluted compounds were added to the cells by FDSS6000 (Hamamatsu) at final concentrations ranging from 0.08 nM to 5 μM. and were then incubated for 20 min at room temperature at which time LPA (Avanti Polar Lipids Cat #857130C) was added at final concentrations of 10 nM to stimulate the cells. […] IC50 values were determined by fitting data to a 4-parameter logistic equation (GraphPad Prism, San Diego Calif.).

T1 sequence (Q92633 whole entry): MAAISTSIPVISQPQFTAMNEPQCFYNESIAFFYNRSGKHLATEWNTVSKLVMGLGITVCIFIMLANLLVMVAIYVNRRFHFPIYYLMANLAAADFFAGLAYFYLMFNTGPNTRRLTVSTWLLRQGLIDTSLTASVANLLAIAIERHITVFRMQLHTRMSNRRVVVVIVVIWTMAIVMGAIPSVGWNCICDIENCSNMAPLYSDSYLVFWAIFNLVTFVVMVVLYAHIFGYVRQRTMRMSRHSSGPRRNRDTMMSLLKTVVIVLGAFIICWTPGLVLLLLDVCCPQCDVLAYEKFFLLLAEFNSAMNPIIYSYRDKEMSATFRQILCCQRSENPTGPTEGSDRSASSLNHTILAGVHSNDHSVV

IC50 [µM]	Compound
0.019	Cc1nc(-c2onc(C)c2COC(=O)N(C)Cc2cccc(F)c2)ccc1O[C@H]1CCC[C@H](C(=O)O)C1 [Example 61]
0.05	Cc1nc(-c2onc(C)c2COC(=O)N(C)C(C)(C)C)ccc1O[C@H]1CCC[C@H](C(=O)O)C1 [Example 63]
0.052	Cc1cc(-c2onc(C)c2COC(=O)N(C)C2CCCC2)ccc1O[C@H]1CCC[C@H](C(=O)O)C1 [Example 64]
0.017	Cc1nc(-c2onc(C)c2COC(=O)N(C)[C@H](C)c2ccccc2)ccc1O[C@H]1CCC[C@H](C(=O)O)C1 [Example 62]
0.15	Cc1noc(-c2cnc(O[C@H]3CCC[C@H](C(=O)O)C3)cn2)c1COC(=O)N(C)CCC(C)C [Example 56]
0.008	Cc1noc(-c2ccc(O[C@H]3CCC[C@H](C(=O)O)C3)cn2)c1COC(=O)N(C)CC1CCC1 [Example 58]
0.045	Cc1nc(-c2onc(C)c2COC(=O)N[C@H](C)c2ccccc2)ccc1O[C@H]1CCC[C@H](C(=O)O)C1 [Example 59]
0.166	Cc1nc(-c2onc(C)c2COC(=O)NC(C)(C)C)ccc1O[C@H]1CCC[C@H](C(=O)O)C1 [Example 60]

same assay, conditions: CHO cells overexpressing human LPA1; calcium flux induced by 10 nM LPA; read-out: hLPA1 IC50

IC50 [µM]	Compound
0.085	Cc1noc(-c2cnc(O[C@H]3CCC[C@H](C(=O)O)C3)cn2)c1COC(=O)N(C)C(C)C1CC1 (mixture of isomers) [Example 9, (±)-Trans-3-((5-(4-((((1-cyclopropylethyl)(methyl)carbamoyl)oxy)methyl)-3-methyl-isoxazol-5-yl)pyrazin-2-yl)oxy)cyclohexanecarboxylic Acid]
0.023	Cc1noc(-c2ccc(O[C@H]3CCC[C@H](C(=O)O)C3)cn2)c1COC(=O)N(C)C1CC(C)(C)C1 [Example 70]
1.21	Cc1noc(-c2ccc(O[C@H]3CCC[C@H](C(N)=O)C3)cc2)c1COC(=O)N(C)C1CCCC1 (racemic) [Example 73, (±)-Trans-(5-(4-((3-carbamoylcyclohexyl)oxy)phenyl)-3-methylisoxazol-4-yl)methyl cyclopentyl(methyl)carbamate]
0.028	CCCCN(C)C(=O)OCc1c(C)noc1-c1ccc(O[C@H]2CCC[C@H](C(=O)O)C2)cc1 [Example 2, (1S,3S)-3-(4-(4-(((butyl(methyl)carbamoyl)oxy)methyl)-3-methylisoxazol-5-yl)phenoxy) cyclohexane-1-carboxylic Acid]
1.23	Cc1noc(-c2ccc(O[C@H]3CCC[C@H](C(=O)O)C3)cc2)c1COC(=O)N1C[C@H]2C[C@H]2C1 [Example 35]
1.21	Cc1noc(-c2ccc(O[C@@H]3CCC[C@@H](CC(=O)O)C3)cc2)c1COC(=O)N(C)CCC(C)C [Example 49]
0.026	Cc1noc(-c2ccc(O[C@@H]3CCC[C@@H](C(=O)O)C3)c(F)c2)c1COC(=O)N(C)C1CCCC1 [Example 38]
0.57	Cc1noc(-c2ccc(O[C@@H]3CCC[C@@H](CC(=O)O)C3)cc2)c1COC(=O)N(C)C1CCCC1 (racemic) [Example 47, (±)-(Trans)-2-(3-(4-(4-(((cyclopentyl(methyl)carbamoyl)oxy)methyl)-3-methylisoxazol-5-yl)phenoxy)cyclohexyl)acetic Acid]
0.103	Cc1noc(-c2ccc(O[C@@H]3CCC[C@@](F)(C(=O)O)C3)cc2)c1COC(=O)N(C)C1CCCC1 [Example 6]
0.015	CCCCN(C)C(=O)OCc1c(C)noc1-c1ccc(O[C@H]2CCC[C@H](C(=O)O)C2)c(C)n1 [Example 15]
0.093	Cc1nc(-c2onc(C)c2COC(=O)N(C)C2(c3ccccc3)CC2)ccc1O[C@H]1CCC[C@H](C(=O)O)C1 [Example 16]
3.25	Cc1noc(-c2ccc(OC3CCCC(C#N)C3)cc2)c1COC(=O)N(C)C1CCCC1 (mixture of isomers) [Example 74, (5-(4-((3-cyanocyclohexyl)oxy)phenyl)-3-methylisoxazol-4-yl)methyl cyclopentyl(methyl)carbamate]
0.025	[2H]C([2H])([2H])N(C(=O)OCc1c(C)noc1-c1ccc(O[C@H]2CCC[C@H](C(=O)O)C2)cn1)[C@H](C)C1CC1 [Example 66]
0.399	Cc1nc(-c2onc(C)c2COC(=O)N(C)Cc2cccc(Cl)c2)ccc1O[C@H]1CCC[C@H](C(=O)O)C1 [Example 17]
0.102	Cc1noc(-c2ccc(O[C@H]3CCC[C@H](C(=O)O)C3)cc2)c1COC(=O)N(C)C1CCC1 [Example 36]
0.565	Cc1noc(-c2ccc(OC3CCCC(c4nnn[nH]4)C3)cc2)c1COC(=O)N(C)C1CCCC1 (single isomer, unassigned) [Example 78, (5-(4-((3-(1H-tetrazol-5-yl)cyclohexyl)oxy)phenyl)-3-methylisoxazol-4-yl)methyl cyclopentyl(methyl)carbamate]
0.02	Cc1noc(-c2ccc(O[C@H]3CCC[C@H](C(=O)O)C3)cn2)c1COC(=O)N(C)[C@H](C)C1CC1 [Example 42]
0.027	Cc1nc(-c2onc(C)c2COC(=O)N(C)C2CCCC2)ccc1O[C@H]1CCC[C@@H](C(=O)O)C1 [Example 39]
0.175	Cc1noc(-c2ccc(O[C@H]3CCC[C@H](C(=O)O)C3)cc2)c1C(C)OC(=O)N(C)CCC(C)C (stereo partly drawn) [Example 50, (1S,3S)-3-(4-(4-(1-((isopentyl(methyl)carbamoyl)oxy)ethyl)-3-methyl-isoxazol-5-yl)phenoxy)cyclohexane-1-carboxylic Acid]
0.015	Cc1noc(-c2ccc(O[C@H]3CCC[C@H](C(=O)O)C3)cn2)c1COC(=O)N(C)CCC1CC1 [Example 43]
0.06	Cc1noc(-c2ccc(O[C@H]3CCC[C@H](C(=O)O)C3)cc2)c1COC(=O)N(C)CCC(C)(C)C [Example 30]

IC50 [µM]	Compound
0.014	Cc1nc(-c2onc(C)c2COC(=O)N(C)CC2CC2)ccc1O[C@H]1CCC[C@H](C(=O)O)C1 [Example 14]
0.014	Cc1nc(-c2onc(C)c2COC(=O)N(C)C2CCCC2)ccc1O[C@H]1CCC[C@H](C(=O)O)C1 [Example 12]
0.053	CCC(CC)N(C)C(=O)OCc1c(C)noc1-c1ccc(O[C@H]2CCC[C@H](C(=O)O)C2)c(C)n1 [Example 13]
0.472	COCCN(C)C(=O)OCc1c(C)noc1-c1ccc(O[C@@H]2CCC[C@@H](C(=O)O)C2)cc1 [Example 72]
0.37	Cc1noc(-c2ccc(O[C@H]3CCC[C@H](C(=O)O)C3)cc2)c1COC(=O)N(C)C1CCOC1 (stereo partly shown) [Example 31]
0.197	Cc1onc(-c2ccc(O[C@H]3CCC[C@H](C(=O)O)C3)nc2)c1COC(=O)N(C)C1CCCC1 [Example 54, (1S,3S)-3-((5-(4-(((cyclopentyl(methyl)carbamoyl)oxy)methyl)-5-methylisoxazol-3-yl)pyridin-2-yl)oxy)cyclohexane-1-carboxylic Acid]
1.63	COC(C)CN(C)C(=O)OCc1c(C)noc1-c1ccc(O[C@@H]2CCC[C@@H](C(=O)O)C2)cc1 (stereo partly shown) [Example 71]
0.008	Cc1nc(-c2onc(C)c2COC(=O)N(C)CCC(C)C)ccc1O[C@H]1CCC[C@H](C(=O)O)C1 [Example 20]
0.031	Cc1nc(-c2onc(C)c2COC(=O)N(C)Cc2ccccc2)ccc1O[C@H]1CCC[C@H](C(=O)O)C1 [Example 18]
0.015	Cc1noc(-c2ccc(O[C@@H]3CCC[C@@](F)(C(=O)O)C3)cc2)c1COC(=O)N(C)C1CCCC1 (single isomer, unassigned) [Example 4]
0.023	Cc1noc(-c2ccc(O[C@H]3CCC[C@H](C(=O)O)C3)cc2)c1COC(=O)N(C)CCC1CC1 [Example 27]
0.133	Cc1noc(-c2ccc(OC3CCCC(F)(C(=O)O)C3)cc2)c1COC(=O)N(C)C1CCCC1 (single isomer, unassigned) [Example 5]
0.048	Cc1noc(-c2ccc(O[C@@H]3CCC[C@@H](C(=O)O)C3)cc2)c1COC(=O)N(C)C(C)C1CC1 (stereo partly shown) [Example 68]
0.214	Cc1noc(-c2ccc(O[C@@H]3CCC[C@@H](C(=O)O)C3)cc2)c1COC(=O)N(C)C(C)C1CCC1 (stereo partly shown) [Example 69]
1.49	Cc1noc(-c2ccc(O[C@H]3CCC[C@@H](CC(=O)O)C3)cc2)c1COC(=O)N(C)C1CCCC1 [Example 48]
0.029	Cc1nc(-c2onc(C)c2COC(=O)N(C)CC2CCCC2)ccc1O[C@H]1CCC[C@H](C(=O)O)C1 [Example 21]
0.006	Cc1onc(-c2ccc(O[C@H]3CCC[C@H](C(=O)O)C3)cc2)c1COC(=O)N(C)C1CCCC1 [Example 53, (1S,3S)-3-(4-(4-(((cyclopentyl(methyl)carbamoyl)oxy)methyl)-5-methylisoxazol-3-yl)phenoxy)cyclohexane-1-carboxylic Acid]
0.0052	Cc1noc(-c2ccc(O[C@H]3CCC[C@H](C(=O)O)C3)cn2)c1COC(=O)N(C)CCC(C)C [Example 45]
0.47	Cc1noc(-c2ccc(O[C@@H]3CCC[C@@H](C(=O)O)C3)cc2)c1COC(=O)N(C)CCC1CCCC1 [Example 28]
0.675	COCC(C)N(C)C(=O)OCc1c(C)noc1-c1ccc(O[C@@H]2CCC[C@@H](C(=O)O)C2)cc1 (stereo partly shown) [Example 67]
